Assay results published in patent publication US12679878B2, “CRF2 receptor agonists and their use in therapy” (SANOFI, priority 2020, dated 2026).
Where two headings read alike, the source gives them in different places. Starred links: 1 amine or outer side, 2 acyl side, 3 side chain; linkers in the order of their positions; H or OH if unused. Non-standard residues stand in square brackets, D forms with d. Residues, ends and D or L forms follow the SMILES beside them. Groups on a side chain read outwards from the residue. *: point of attachment. C20 diacid = O=C(O)CCCCCCCCCCCCCCCCCCC(=O)*; C18 diacid = O=C(O)CCCCCCCCCCCCCCCCC(=O)*; γGlu = O=C(O)[C@H](CCC(=O)[*:2])N[*:1]; AEEA = NCCOCCOCC(=O)O; Aib = CC(C)(N)C(=O)O

Legend:
Assay type in all cases: cell-based
CRF1R receptor = target: T1, CRF1R receptor (Homo sapiens, UniProt P34998); experiment: cAMP activity at anti-target CRF1R, CRF1R-overexpression CHO cell line (Example 9); conditions: CRF1R-overexpression CHO cell line; for EC50: 0% HSA; for Emax: read-out: Emax (%)
T1 construct: host or cells: CHO-K1 clone 2
T1 sequence (P34998 24-415): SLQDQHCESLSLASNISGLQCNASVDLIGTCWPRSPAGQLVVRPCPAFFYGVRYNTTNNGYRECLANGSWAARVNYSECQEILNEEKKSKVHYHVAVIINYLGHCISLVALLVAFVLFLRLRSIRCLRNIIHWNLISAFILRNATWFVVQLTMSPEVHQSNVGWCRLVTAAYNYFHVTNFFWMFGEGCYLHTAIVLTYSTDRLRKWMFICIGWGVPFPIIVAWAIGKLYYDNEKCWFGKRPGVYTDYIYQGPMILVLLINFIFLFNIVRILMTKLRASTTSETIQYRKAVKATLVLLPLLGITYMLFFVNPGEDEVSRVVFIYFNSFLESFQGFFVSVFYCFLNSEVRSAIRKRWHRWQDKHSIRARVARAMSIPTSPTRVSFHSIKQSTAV
How it was run: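 cAMP accumulation was read by HTRF after 30 min at room temperature of compound treatment. Cells were cryopreserved CHO cells overexpressing CRF1R, plated at 2000/well in IBMX (2 mM)-containing HBSS/HEPES buffer with 0 or 0.1% HSA. Activity was normalized to 1000 nM UCN2 as 100%.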

rat CRF2R α receptor = experiment: cAMP agonism at rat CRF2R α receptor in A7R5 rat aortic smooth muscle cells (Example 8); conditions: cAMP HTRF, A7R5 rat aortic smooth muscle cell line, 0% HSA
How it was run: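 Thawed cryopreserved A7R5 cells in HBSS/20 mM HEPES (0 or 0.1% HSA) with 2 mM IBMX, 2000 cells/well, were exposed to compound for 30 min at room temperature. cAMP was read by HTRF (665/620 nm ratio) after 1 h with lysis reagents. Activity was normalised to 1000 nM urocortin 2 as 100%, and EC50 was taken as the concentration giving 50% of maximal activation.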

human CRF2α receptor = target: T2, human CRF2α receptor (Homo sapiens, UniProt Q13324); experiment: cAMP agonism at human CRF2 α receptor in TeloHEAC cells (Example 7); conditions: cAMP HTRF, TeloHEAC cells stably expressing human CRF2 α
T2 construct: expressed in transfected cells; host or cells: TeloHEAC
T2 sequence (Q13324 1-411): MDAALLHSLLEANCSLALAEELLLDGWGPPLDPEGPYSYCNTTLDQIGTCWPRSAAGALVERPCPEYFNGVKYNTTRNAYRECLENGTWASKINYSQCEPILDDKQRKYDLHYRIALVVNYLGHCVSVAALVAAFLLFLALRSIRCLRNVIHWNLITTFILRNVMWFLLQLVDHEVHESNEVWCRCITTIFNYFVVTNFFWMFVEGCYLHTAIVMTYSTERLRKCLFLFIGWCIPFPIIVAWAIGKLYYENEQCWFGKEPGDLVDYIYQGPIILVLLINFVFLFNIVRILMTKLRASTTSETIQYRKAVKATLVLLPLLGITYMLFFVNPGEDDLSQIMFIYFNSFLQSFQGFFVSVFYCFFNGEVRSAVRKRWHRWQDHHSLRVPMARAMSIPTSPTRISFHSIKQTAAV
How it was run: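 Thawed frozen stably transfected cells in HBSS/20 mM HEPES (0% or 0.1% HSA) plus 2 mM IBMX were exposed to compound at 2000 cells/well for 30 min at room temperature. Intracellular cAMP was read by HTRF (665/620 nm ratio) after 1 h lysis; EC50 was derived with 1000 nM urocortin 2 set as 100%.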

[1] = 0% HSA, read-out: EC50 [nM], 0% HSA
[2] = 0.1% HSA, read-out: EC50 [nM], 0.1% HSA

Structure (SMILES) | EC50 (CRF1R receptor) | Emax (CRF1R receptor) | EC50 (rat CRF2R α receptor) | EC50 (human CRF2α receptor; [1]) | EC50 (human CRF2α receptor; [2])
CC[C@H](C)[C@H](NC(=O)[C@H](CCC(N)=O)NC(=O)[C@H](CCCCNC(=O)COCCOCCNC(=O)COCCOCCNC(=O)CC[C@H](NC(=O)CCCCCCCCCCCCCCCCCCC(=O)O)C(=O)O)NC(=O)[C@H](CC(C)C)NC(=O)[C@H](CCCCN)NC(=O)[C@@H](NC(=O)[C@@H]1CCCN1C(=O)[C@@H](NC(=O)[C@H](CC(=O)O)NC(=O)[C@H](CC(C)C)NC(=O)[C@H](CO)NC(=O)[C@H](CC(C)C)NC(=O)[C@@H](NC(=O)[C@@H](N)Cc1ccccc1)[C@@H](C)O)C(C)C)[C@@H](C)CC)C(=O)N[C@@H](CC(C)C)C(=O)N[C@@H](CC(C)C)C(=O)N[C@@H](CCC(=O)O)C(=O)N[C@@H](CCC(N)=O)C(=O)N[C@@H](CCC(N)=O)C(=O)N[C@@H](CCCCN)C(=O)N[C@@H](CCC(N)=O)C(=O)N[C@@H](CCCCN)C(=O)N[C@@H](CCCCN)C(=O)N[C@@H](CCC(=O)O)C(=O)N[C@@H](CCCNC(=N)N)C(=O)N[C@@H](CCC(N)=O)C(=O)N[C@@H](CCC(N)=O)C(=O)N[C@@H](C)C(=O)N[C@@H](CCC(=O)O)C(=O)N[C@H](C(=O)N[C@@H](CC(N)=O)C(=O)N[C@H](C(=O)N[C@@H](CCC(N)=O)C(=O)N[C@@H](CC(C)C)C(=O)N[C@@H](CC(C)C)C(=O)N[C@@H](CCC(=O)O)C(=O)N[C@@H](CCCNC(=N)N)C(=O)N[C@H](C(N)=O)C(C)C)C(C)C)[C@@H](C)O [compound 63] (H-FTLSLDVPIKLK([AEEA-AEEA-γGlu-C20 diacid])QILLEQQKQKKERQQAETNVQLLERV-NH2) | > 1000 nM | 4.68% | 4.73 nM | 0.63 nM | –
CC[C@H](C)[C@H](N)C(=O)N[C@H](C(=O)N[C@@H](CC(C)C)C(=O)N[C@@H](CO)C(=O)N[C@@H](CC(C)C)C(=O)N[C@@H](CC(=O)O)C(=O)N[C@H](C(=O)N1CCC[C@H]1C(=O)N[C@H](C(=O)N[C@@H](CCCCN)C(=O)N[C@@H](CC(C)C)C(=O)N[C@@H](CCCCNC(=O)COCCOCCNC(=O)COCCOCCNC(=O)CC[C@H](NC(=O)CCCCCCCCCCCCCCCCC(=O)O)C(=O)O)C(=O)N[C@@H](CCCCN)C(=O)NC(C)(C)C(=O)N[C@@H](CC(C)C)C(=O)N[C@@H](CC(C)C)C(=O)N[C@@H](CCC(=O)O)C(=O)N[C@@H](CCC(N)=O)C(=O)N[C@@H](CCC(=O)O)C(=O)N[C@@H](CCCNC(=N)N)C(=O)N[C@@H](CCC(N)=O)C(=O)N[C@@H](CCCCN)C(=O)N[C@@H](CCCCN)C(=O)N[C@@H](CCC(N)=O)C(=O)N[C@@H](CCCNC(=N)N)C(=O)N[C@@H](CCC(=O)O)C(=O)N[C@@H](CCC(N)=O)C(=O)N[C@@H](C)C(=O)N[C@@H](CCC(=O)O)C(=O)N[C@H](C(=O)N[C@@H](CC(N)=O)C(=O)N[C@@H](CCCCN)C(=O)N[C@@H](CCC(N)=O)C(=O)N[C@H](C(=O)N[C@@H](CC(C)C)C(=O)N[C@@H](C)C(=O)N[C@@H](CCC(N)=O)C(=O)N[C@H](C(N)=O)C(C)C)[C@@H](C)CC)[C@@H](C)O)[C@@H](C)CC)C(C)C)C(C)C [compound 69] (H-IVLSLDVPIKLK([AEEA-AEEA-γGlu-C18 diacid])K[Aib]LLEQERQKKQREQAETNKQILAQV-NH2; N-terminus assumed) | > 1000 nM | 0.02% | 7.33 nM | 0.61 nM | –
CC[C@H](C)[C@H](N)C(=O)N[C@H](C(=O)N[C@@H](CC(C)C)C(=O)N[C@@H](CO)C(=O)N[C@@H](CC(C)C)C(=O)N[C@@H](CC(=O)O)C(=O)N[C@H](C(=O)N1CCC[C@H]1C(=O)N[C@H](C(=O)N[C@@H](CCCCN)C(=O)N[C@@H](CC(C)C)C(=O)N[C@@H](CCCCNC(=O)COCCOCCNC(=O)COCCOCCNC(=O)CC[C@H](NC(=O)CCCCCCCCCCCCCCCCC(=O)O)C(=O)O)C(=O)N[C@@H](CCC(N)=O)C(=O)N[C@H](C(=O)N[C@@H](CC(C)C)C(=O)N[C@@H](CC(C)C)C(=O)N[C@@H](CCC(=O)O)C(=O)N[C@@H](CCC(N)=O)C(=O)N[C@@H](CCC(=O)O)C(=O)N[C@@H](CCCNC(=N)N)C(=O)N[C@@H](CCC(N)=O)C(=O)N[C@@H](CCCCN)C(=O)N[C@@H](CCCCN)C(=O)N[C@@H](CCC(N)=O)C(=O)N[C@@H](CCCNC(=N)N)C(=O)N[C@@H](CCC(=O)O)C(=O)N[C@@H](CCC(N)=O)C(=O)N[C@@H](C)C(=O)N[C@@H](CCC(=O)O)C(=O)N[C@H](C(=O)N[C@@H](CC(N)=O)C(=O)NC(C)(C)C(=O)N[C@@H](CCC(N)=O)C(=O)N[C@H](C(=O)N[C@@H](CC(C)C)C(=O)N[C@@H](C)C(=O)N[C@@H](CCC(N)=O)C(=O)N[C@H](C(N)=O)C(C)C)[C@@H](C)CC)[C@@H](C)O)[C@@H](C)CC)[C@@H](C)CC)C(C)C)C(C)C [compound 70] (H-IVLSLDVPIKLK([AEEA-AEEA-γGlu-C18 diacid])QILLEQERQKKQREQAETN[Aib]QILAQV-NH2; N-terminus assumed) | > 1000 nM | 3.03% | 8.72 nM | 0.91 nM | –
CC[C@H](C)[C@H](N)C(=O)N[C@H](C(=O)N[C@@H](CC(C)C)C(=O)N[C@@H](CO)C(=O)N[C@@H](CC(C)C)C(=O)N[C@@H](CC(=O)O)C(=O)N[C@H](C(=O)N1CCC[C@H]1C(=O)N[C@H](C(=O)N[C@@H](CCCCN)C(=O)N[C@@H](CC(C)C)C(=O)N[C@@H](CCCCNC(=O)COCCOCCNC(=O)COCCOCCNC(=O)CC[C@H](NC(=O)CCCCCCCCCCCCCCCCCCC(=O)O)C(=O)O)C(=O)N[C@@H](CCC(N)=O)C(=O)N[C@H](C(=O)N[C@@H](CC(C)C)C(=O)N[C@@H](CC(C)C)C(=O)N[C@@H](CCC(=O)O)C(=O)N[C@@H](CCC(N)=O)C(=O)N[C@@H](CCC(=O)O)C(=O)N[C@@H](CCCNC(=N)N)C(=O)N[C@@H](CCC(N)=O)C(=O)N[C@@H](CCCCN)C(=O)N[C@@H](CCCCN)C(=O)N[C@@H](CCC(N)=O)C(=O)N[C@@H](CCCNC(=N)N)C(=O)N[C@@H](CCC(=O)O)C(=O)N[C@@H](CCC(N)=O)C(=O)N[C@@H](C)C(=O)N[C@@H](CCC(=O)O)C(=O)N[C@H](C(=O)N[C@@H](CC(N)=O)C(=O)NC(C)(C)C(=O)N[C@@H](CCC(N)=O)C(=O)N[C@H](C(=O)N[C@@H](CC(C)C)C(=O)N[C@@H](C)C(=O)N[C@@H](CCC(N)=O)C(=O)N[C@H](C(N)=O)C(C)C)[C@@H](C)CC)[C@@H](C)O)[C@@H](C)CC)[C@@H](C)O)C(C)C)C(C)C [compound 80] (H-IVLSLDVPTKLK([AEEA-AEEA-γGlu-C20 diacid])QILLEQERQKKQREQAETN[Aib]QILAQV-NH2) | > 1000 nM | 12.7% | 5.2 nM | 0.9 nM | 92.5 nM
CC[C@H](C)[C@H](N)C(=O)N[C@H](C(=O)N[C@@H](CC(C)C)C(=O)N[C@@H](CO)C(=O)N[C@@H](CC(C)C)C(=O)N[C@@H](CC(=O)O)C(=O)N[C@H](C(=O)N1CCC[C@H]1C(=O)N[C@H](C(=O)N[C@@H](CCCCN)C(=O)N[C@@H](CC(C)C)C(=O)N[C@@H](CCCCNC(=O)COCCOCCNC(=O)COCCOCCNC(=O)CC[C@H](NC(=O)CCCCCCCCCCCCCCCCC(=O)O)C(=O)O)C(=O)N[C@@H](CCC(N)=O)C(=O)N[C@H](C(=O)N[C@@H](CC(C)C)C(=O)N[C@@H](CC(C)C)C(=O)N[C@@H](CCCCN)C(=O)N[C@@H](CCC(N)=O)C(=O)N[C@@H](CCC(=O)O)C(=O)N[C@@H](CCCNC(=N)N)C(=O)N[C@@H](CCC(N)=O)C(=O)N[C@@H](CCCCN)C(=O)N[C@@H](CCCCN)C(=O)N[C@@H](CCC(N)=O)C(=O)N[C@@H](CCCNC(=N)N)C(=O)N[C@@H](CCC(=O)O)C(=O)N[C@@H](CCC(N)=O)C(=O)N[C@@H](C)C(=O)N[C@@H](CCC(=O)O)C(=O)N[C@H](C(=O)N[C@@H](CC(N)=O)C(=O)N[C@@H](CCCCN)C(=O)N[C@@H](CCC(N)=O)C(=O)N[C@H](C(=O)N[C@@H](CC(C)C)C(=O)N[C@@H](C)C(=O)N[C@@H](CCC(N)=O)C(=O)N[C@H](C(N)=O)C(C)C)[C@@H](C)CC)[C@@H](C)O)[C@@H](C)CC)[C@@H](C)CC)C(C)C)C(C)C [compound 85] (H-IVLSLDVPIKLK([AEEA-AEEA-γGlu-C18 diacid])QILLKQERQKKQREQAETNKQILAQV-NH2; N-terminus assumed) | > 1000 nM | 0.14% | 0.73 nM | 0.1 nM | 3.58 nM
